Laboratory results taken from ChEMBL document CHEMBL1201862, “PubChem BioAssay data set” (2004).
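Following 48 hours of exposure in 96-well plates, responses at five concentrations were used to interpolate endpoints linearly. GI50 is the concentration that inhibits growth by half.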 Active and inactive are the calls of the source. Cut-off read from the data, not from the text of the source: active = GI50 up to about 1.1 µM and inactive = higher.

Experiments:
Assay in all cases: NCI tumour cell line growth inhibition, 48 h
[1] = test system: LOX IMVI
[2] = test system: IGROV-1
[3] = test system: DU-145
[4] = test system: SK-OV-3
[5] = test system: KM12
[6] = test system: HCT-15
[7] = test system: Malme-3M
[8] = test system: MDA-MB-435
[9] = test system: OVCAR-3
[10] = test system: UACC-257
[11] = test system: T47D
[12] = test system: HL-60
[13] = test system: COLO 205
[14] = test system: NCI-H522
[15] = test system: SK-MEL-2
[16] = test system: HOP-62
[17] = test system: CCRF-CEM
[18] = test system: A498
[19] = test system: RXF 393
[20] = test system: SR

Row | SMILES | GI50 [1] | GI50 [2] | GI50 [3] | GI50 [4] | GI50 [5] | GI50 [6] | GI50 [7] | GI50 [8] | GI50 [9] | GI50 [10] | GI50 [11] | GI50 [12] | GI50 [13] | GI50 [14] | GI50 [15] | GI50 [16] | GI50 [17] | GI50 [18] | GI50 [19] | GI50 [20]
1 | CC12CC(c3ccccc3O1)C(C(=O)Nc1ccc(Cl)cc1Cl)C(=O)N2 (stereo not drawn) | 22.5 µM (inactive) | 24.2 µM (inactive) | 27.6 µM (inactive) | 73.8 µM (inactive) | > 100 µM (inactive) | 54.2 µM | 39 µM (inactive) | 67.1 µM (inactive) | 38 µM (inactive) | > 100 µM (inactive) | 20.3 µM (inactive) | 3.34 µM (inactive) | 64.6 µM (inactive) | 56.8 µM (inactive) | > 100 µM (inactive) | 20.1 µM (inactive) | 15 µM (inactive) | – | – | –
2 | O=C1/C(=C\c2cccc(Oc3ccccc3)c2)SC(c2ccccc2)N1c1cccc(Cl)c1 (stereo not drawn) | > 100 µM (inactive) | – | > 100 µM (inactive) | > 100 µM (inactive) | 35.8 µM (inactive) | > 100 µM | > 100 µM (inactive) | 92.7 µM (inactive) | > 100 µM (inactive) | > 100 µM (inactive) | > 100 µM (inactive) | – | > 100 µM (inactive) | – | > 100 µM (inactive) | > 100 µM (inactive) | – | > 100 µM (inactive) | 64.1 µM (inactive) | –
3 | CN1CCCCC(C#N)(c2ccccc2)CC1 (stereo not drawn) | – | > 100 µM (inactive) | > 100 µM (inactive) | > 100 µM (inactive) | > 100 µM (inactive) | > 100 µM | > 100 µM (inactive) | – | – | > 100 µM (inactive) | > 100 µM (inactive) | > 100 µM (inactive) | > 100 µM (inactive) | – | – | > 100 µM (inactive) | > 100 µM (inactive) | > 100 µM (inactive) | > 100 µM (inactive) | > 100 µM (inactive)
4 | C#CCCCCC#Cc1ccccc1C(=O)C=[N+]=[N-] | – | > 100 µM (inactive) | > 100 µM (inactive) | > 100 µM (inactive) | – | > 100 µM | – | > 100 µM (inactive) | – | > 100 µM (inactive) | > 100 µM (inactive) | – | > 100 µM (inactive) | > 100 µM (inactive) | > 100 µM (inactive) | > 100 µM (inactive) | – | > 100 µM (inactive) | > 100 µM (inactive) | –
5 | CC(=O)N1c2ccccc2[C@H]2CCc3c([nH]c4ccccc34)[C@H]21 | 11.6 µM (inactive) | 4.33 µM (inactive) | 20.1 µM (inactive) | 28.3 µM (inactive) | 11.1 µM (inactive) | 11.3 µM | 14.1 µM (inactive) | 16.7 µM (inactive) | 15.4 µM (inactive) | 31.6 µM (inactive) | 18.7 µM (inactive) | 12.4 µM (inactive) | 13.2 µM (inactive) | 20.4 µM (inactive) | 19.2 µM (inactive) | 12.6 µM (inactive) | 11.6 µM (inactive) | 17.5 µM (inactive) | 13.2 µM (inactive) | –
6 | c1ccc(C2=NN=C3C(c4ccccc4)=Nc4ccccc4N3C2)cc1 | 10 µM (inactive) | 26.5 µM (inactive) | 7.94 µM (inactive) | 53.1 µM (inactive) | 29 µM (inactive) | 11.6 µM | 26 µM (inactive) | 17.7 µM (inactive) | 3.37 µM (inactive) | 7.55 µM (inactive) | 36.7 µM (inactive) | 3.56 µM (inactive) | 20.5 µM (inactive) | 3.84 µM (inactive) | 23.5 µM (inactive) | 27 µM (inactive) | 1.69 µM (inactive) | > 80.2 µM (inactive) | 10.1 µM (inactive) | –
7 | C=CCCC1(CCP(=O)(c2ccccc2)c2ccccc2)OCCO1 | > 100 µM (inactive) | > 100 µM (inactive) | > 100 µM (inactive) | – | > 100 µM (inactive) | > 100 µM | > 100 µM (inactive) | > 100 µM (inactive) | > 100 µM (inactive) | > 100 µM (inactive) | – | > 100 µM (inactive) | > 100 µM (inactive) | 64.3 µM (inactive) | > 100 µM (inactive) | > 100 µM (inactive) | > 100 µM (inactive) | – | > 100 µM (inactive) | > 100 µM (inactive)
8 | COC(=O)C(/C(=N/NC(=O)c1ccncc1)C(=O)Nc1ccccc1OC)c1nc2ccc(Cl)cc2nc1O (stereo not drawn) | > 100 µM (inactive) | 11 µM (inactive) | – | > 100 µM (inactive) | 92 µM (inactive) | 63.5 µM | > 100 µM (inactive) | 44.3 µM (inactive) | > 100 µM (inactive) | > 100 µM (inactive) | > 100 µM (inactive) | > 100 µM (inactive) | – | > 100 µM (inactive) | > 100 µM (inactive) | > 100 µM (inactive) | > 10 µM (inactive) | > 100 µM (inactive) | > 100 µM (inactive) | 0.78 µM (active)
9 | CN(C)CC(O)CNC(=O)Nc1ccccc1 (stereo not drawn) | > 100 µM (inactive) | > 100 µM (inactive) | > 100 µM (inactive) | > 100 µM (inactive) | > 100 µM (inactive) | > 100 µM | > 100 µM (inactive) | > 100 µM (inactive) | > 100 µM (inactive) | > 100 µM (inactive) | > 100 µM (inactive) | > 100 µM (inactive) | > 100 µM (inactive) | – | > 100 µM (inactive) | > 100 µM (inactive) | > 100 µM (inactive) | > 100 µM (inactive) | > 100 µM (inactive) | –
10 | CC1=CCC(=O)[C@]2(C)C(CC(=O)O)[C@]3(C)C4=C(C)C(c5ccoc5)C[C@@H]4O[C@@H]3[C@H](O)[C@@H]12 (stereo partly drawn) | > 100 µM (inactive) | > 100 µM (inactive) | > 100 µM (inactive) | > 100 µM (inactive) | > 100 µM (inactive) | > 100 µM | > 100 µM (inactive) | > 100 µM (inactive) | > 100 µM (inactive) | > 100 µM (inactive) | > 100 µM (inactive) | > 100 µM (inactive) | > 100 µM (inactive) | > 100 µM (inactive) | > 100 µM (inactive) | – | > 100 µM (inactive) | > 100 µM (inactive) | – | –
11 | O=C1CC(NC(=O)C(F)(F)F)c2c(Br)sc(N3CCC(c4ccccc4)CC3)c21 (stereo not drawn) | 7.85 µM (inactive) | > 100 µM (inactive) | 22.2 µM (inactive) | 64 µM (inactive) | > 100 µM (inactive) | 25.1 µM | > 100 µM (inactive) | > 100 µM (inactive) | 6.25 µM (inactive) | 13.4 µM (inactive) | 4.45 µM (inactive) | 9.44 µM (inactive) | > 100 µM (inactive) | 7.94 µM (inactive) | 0.973 µM (active) | – | 4.05 µM (inactive) | > 100 µM (inactive) | 17 µM (inactive) | –
12 | CC12CCC(C1)C(C)(C)C2OC(=O)c1ccccc1C(=O)O (stereo not drawn) | > 100 µM (inactive) | > 100 µM (inactive) | > 100 µM (inactive) | > 100 µM (inactive) | > 100 µM (inactive) | > 100 µM | > 100 µM (inactive) | > 100 µM (inactive) | – | > 100 µM (inactive) | > 100 µM (inactive) | > 100 µM (inactive) | > 100 µM (inactive) | > 100 µM (inactive) | > 100 µM (inactive) | 34.7 µM (inactive) | – | > 100 µM (inactive) | > 100 µM (inactive) | –
13 | CCOC(OC1=C(C#N)CCCC1)C(C)[Se]c1ccccc1 (stereo not drawn) | 16 µM (inactive) | 29.2 µM (inactive) | – | > 100 µM (inactive) | > 100 µM (inactive) | 36.8 µM | 55.3 µM (inactive) | – | 31.6 µM (inactive) | 74.6 µM (inactive) | – | 17.3 µM (inactive) | 39.7 µM (inactive) | 16 µM (inactive) | > 100 µM (inactive) | 78.3 µM (inactive) | 21.7 µM (inactive) | > 100 µM (inactive) | 15.2 µM (inactive) | 20.7 µM (inactive)
14 | N/C(=N\c1ccc(Cl)c(Cl)c1)c1ccccc1N | 22.1 µM (inactive) | 13.3 µM (inactive) | 51.9 µM (inactive) | 85.7 µM (inactive) | 33.6 µM (inactive) | 28.2 µM | 19 µM (inactive) | 18.5 µM (inactive) | 39.5 µM (inactive) | 27.1 µM (inactive) | – | 22.2 µM (inactive) | 20.6 µM (inactive) | 11.4 µM (inactive) | 15.4 µM (inactive) | 57.4 µM (inactive) | 27.7 µM (inactive) | 22.3 µM (inactive) | 32.7 µM (inactive) | –
15 | COc1ccccc1C1(c2c(OC(C)C)c(=O)c2=O)SCCCS1 | > 100 µM (inactive) | > 100 µM (inactive) | > 100 µM (inactive) | > 100 µM (inactive) | > 100 µM (inactive) | > 100 µM | – | > 100 µM (inactive) | > 100 µM (inactive) | > 100 µM (inactive) | > 100 µM (inactive) | > 100 µM (inactive) | > 100 µM (inactive) | 65.9 µM (inactive) | > 100 µM (inactive) | > 100 µM (inactive) | 40.5 µM (inactive) | > 100 µM (inactive) | > 100 µM (inactive) | –
16 | COc1ccc(OC)c(NCC(=O)Nn2cnc3ccc(S(=O)(=O)Nc4cc(OC)ccc4OC)cc3c2=O)c1 | 41.1 µM (inactive) | > 100 µM (inactive) | > 100 µM (inactive) | > 100 µM (inactive) | 46 µM (inactive) | > 100 µM | > 100 µM (inactive) | 29.5 µM (inactive) | > 100 µM (inactive) | 82.6 µM (inactive) | – | 16.2 µM (inactive) | > 100 µM (inactive) | 40 µM (inactive) | 35.4 µM (inactive) | > 100 µM (inactive) | 35.5 µM (inactive) | – | – | 25.4 µM (inactive)
